PMC3809587, “Structure and function of the Smoothened extracellular domain in vertebrate Hedgehog signaling” (eLife, 2013)
“Also recorded” adds a separate entry of the source. Like-named read-outs stand apart in the source and are kept apart here.

Tests used:
[1] = system: Hh reporter (8xGli-responsive promoter); conditions: cited from earlier work
mSmo CRD-Fc = molecular target: T1, mSmo CRD-Fc (Mus musculus, UniProt P56726); assay: Ligand affinity chromatography: mSmo CRD-Fc binding to 20(S)-OHC beads; conditions: free compound added as competitor
T1 construct: made in house; host or cells: 293F suspension cells (secreted)
T1 sequence (P56726 33-183): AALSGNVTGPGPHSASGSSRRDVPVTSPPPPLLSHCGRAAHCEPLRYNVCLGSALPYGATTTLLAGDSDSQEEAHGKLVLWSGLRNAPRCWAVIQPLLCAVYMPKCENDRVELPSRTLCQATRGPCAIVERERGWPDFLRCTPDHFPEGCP
Protocol: After binding was allowed to proceed for 12 hr at 4°C, the resin was washed and captured protein was eluted as described above. The presence of mSmo CRD-Fc was measured by an anti-human HRP-coupled antibody (1:20,000) or anti-human IR800-coupled antibody (1:10,000; for all quantitation, detected by LiCor Odyssey). The presence of zSmo ectodomain protein was measured by colloidal Coomassie staining (GelCode Blue, Pierce/Thermo Scientific). […]

mSmo D477H = molecular target: T2, mSmo D477H (Mus musculus, UniProt P56726, D477H); assay: Hh reporter assay in Smo−/− cells transfected with mSmo D477H; format: cell-based; conditions: Shh, 25 µM, 48 hr
T2 construct: All mSmo mutants were made using Quickchange or PCR methods in the context of a previously described construct encoding full-length mouse Smo (UniProt P56726); expressed in transfected cells; host or cells: Smo-/- mouse embryonic fibroblasts (transient)
Protocol: (§1) For reporter assays in NIH 3T3 cells, a 10-cm plate of cells was transfected with 8 μg of a 4:1 wt/wt ratio of firefly luciferase reporter driven by an 8xGli-responsive promoter ([Sasaki et al., 1997]) and a Renilla luciferase reporter driven by a constitutive TK promoter (Promega, Madison, WI). The next day, transfected cells were seeded into a 96-well plate, grown to confluence, and treated overnight with drugs diluted in media containing 0.5% fetal bovine serum (FBS). For reporter assays in Smo^−/− cells, 25,000 cells per well were seeded in a 24-well plate 24 hr prior to transfection. The next day, after a media replacement step, each well was transfected with 1 ng Smo construct and 500 ng of the reporter mix described above, using Xtreme Gene HP (Roche, Mannheim, Germany). After overnight transfection, the media were once again changed to fresh media. Cells were grown to confluence and treated with drugs diluted in media with 0.5% FBS for 48 hr. Activity of both reporters was measured using the Dual-Luciferase Reporter kit (Promega) and read on a Synergy H1 Hybrid Multi-Mode Microplate Reader (BioTek, Winooski, VT). The Gli luciferase to Renilla luciferase ratio is reported as ‘Hedgehog reporter activity’. Each experiment, which included three technical replicates, was repeated at least three times.

[2] = system: Hh reporter (8xGli-responsive promoter); assay: Luciferase-based Hh reporter assay; format: cell-based, mouse; conditions: in the absence of Shh
Protocol: For reporter assays in NIH 3T3 cells, a 10-cm plate of cells was transfected with 8 μg of a 4:1 wt/wt ratio of firefly luciferase reporter driven by an 8xGli-responsive promoter ([Sasaki et al., 1997]) and a Renilla luciferase reporter driven by a constitutive TK promoter (Promega, Madison, WI). The next day, transfected cells were seeded into a 96-well plate, grown to confluence, and treated overnight with drugs diluted in media containing 0.5% fetal bovine serum (FBS). For reporter assays in Smo^−/− cells, 25,000 cells per well were seeded in a 24-well plate 24 hr prior to transfection. […] Activity of both reporters was measured using the Dual-Luciferase Reporter kit (Promega) and read on a Synergy H1 Hybrid Multi-Mode Microplate Reader (BioTek, Winooski, VT). […]
For Hh reporter assays, each point is reported as the mean ± standard deviation (SD) derived from triplicates. […] Relative luciferase activity was calculated by dividing Gli luciferase by Renilla luciferase luminescence. Fold-change in reporter activity was calculated by dividing each replicate by the mean reporter activity of the vehicle-treated control. Normalized (% of max) Hh reporter activity was calculated by setting the maximum value of a set to 100% and zero to 0% using the ‘normalize’ function of GraphPad Prism. […]

mSmoM2 = molecular target: T3, mSmoM2 (Mus musculus, UniProt P56726, W539L); assay: Hh reporter assay in NIH 3T3 cells transfected with mSmoM2; format: cell-based; conditions: 10 µM each, 12 hr
T3 construct: All mSmo mutants were made using Quickchange or PCR methods in the context of a previously described construct encoding full-length mouse Smo (UniProt P56726); expressed in transfected cells; host or cells: NIH 3T3 cells
Protocol: as §1

full-length mSmo = molecular target: T4, full-length mSmo (Mus musculus, UniProt P56726); assay: Bodipy-cyclopamine binding to Smo-expressing cells by FACS
T4 construct: expressed in transfected cells

Smo = conditions: ref Wang et al., 2012; cited from earlier work
ΔCRD-YFP-mSmo = molecular target: T5, ΔCRD-YFP-mSmo (Mus musculus, UniProt P56726, DEL68-184); assay: Hh signaling by ΔCRD-YFP-mSmo in Smo−/− cells (immunoblot, Hh reporter); format: cell-based; conditions: SAG 100 nM, 20(S)-OHC 10 μM
T5 construct: All mSmo mutants were made using Quickchange or PCR methods in the context of a previously described construct encoding full-length mouse Smo (UniProt P56726); expressed in transfected cells

YFP-mSmo = molecular target: T6, YFP-mSmo (Mus musculus, UniProt P56726); assay: Gli1 and Gli3R immunoblot in Smo−/−:YFP-mSmo cells; format: cell-based; conditions: SAG 100 nM, 20(S)-OHC 10 μM
T6 construct: Smo^−/− cells stably expressing full-length (FL) YFP-mSmo or ΔCRD-YFP-mSmo were treated with Shh, SAG (100 nM) or 20(S)-OHC (10 μM); expressed in transfected cells
Protocol: Cultured cells stably expressing YFP-mSmo, ΔCRD-YFP-mSmo, or ΔC-YFP-mSmo were scraped into ice-cold PBS containing SigmaFast Protease inhibitor cocktail (Sigma) and collected as a pellet by centrifugation (1000×g, 10 min, 4°C). Cells were lysed (1 hr, 4°C) by agitation in modified RIPA buffer (50 mM sodium-Tris pH 7.4, 150 mM sodium chloride, 2% NP-40, 0.5% deoxycholate, 0.1% sodium-dodecyl sulfate [SDS], 1 mM dithiothreitol and the SigmaFast Protease inhibitor cocktail). After clarification (20,000×g, 45 min, 4°C), the protein concentration of each lysate was measured using the bicinchoninic acid assay (BCA, Pierce/Thermo Scientific, Rockford, IL). Lysate aliquots containing equal amount of total protein were fractionated on an 8% SDS-PAGE gel and transferred to a nitrocellulose membrane for immunoblotting with anti-Gli1 antibody (#L42B10, 1:500; Cell Signaling, Denvers, MA), anti-GFP antibody (1:5000; Novus, Littleton, CO), anti-Gli3 antibody (AF3690 1:200; R&D, Minneapolis, MN) and anti-p38 antibody (ab31828, 1:2000; Abcam, Cambridge, MA). In Figures 1–4, vertical dashed black lines represent non-contiguous lanes from the same immunoblot juxtaposed for clarity.

[3] = system: endogenous mSmo in cilia of NIH 3T3 cells; design: method as in Rohatgi et al., 2009; conditions: ref Rohatgi et al., 2009; cited from earlier work

T4 sequence (P56726 33-793): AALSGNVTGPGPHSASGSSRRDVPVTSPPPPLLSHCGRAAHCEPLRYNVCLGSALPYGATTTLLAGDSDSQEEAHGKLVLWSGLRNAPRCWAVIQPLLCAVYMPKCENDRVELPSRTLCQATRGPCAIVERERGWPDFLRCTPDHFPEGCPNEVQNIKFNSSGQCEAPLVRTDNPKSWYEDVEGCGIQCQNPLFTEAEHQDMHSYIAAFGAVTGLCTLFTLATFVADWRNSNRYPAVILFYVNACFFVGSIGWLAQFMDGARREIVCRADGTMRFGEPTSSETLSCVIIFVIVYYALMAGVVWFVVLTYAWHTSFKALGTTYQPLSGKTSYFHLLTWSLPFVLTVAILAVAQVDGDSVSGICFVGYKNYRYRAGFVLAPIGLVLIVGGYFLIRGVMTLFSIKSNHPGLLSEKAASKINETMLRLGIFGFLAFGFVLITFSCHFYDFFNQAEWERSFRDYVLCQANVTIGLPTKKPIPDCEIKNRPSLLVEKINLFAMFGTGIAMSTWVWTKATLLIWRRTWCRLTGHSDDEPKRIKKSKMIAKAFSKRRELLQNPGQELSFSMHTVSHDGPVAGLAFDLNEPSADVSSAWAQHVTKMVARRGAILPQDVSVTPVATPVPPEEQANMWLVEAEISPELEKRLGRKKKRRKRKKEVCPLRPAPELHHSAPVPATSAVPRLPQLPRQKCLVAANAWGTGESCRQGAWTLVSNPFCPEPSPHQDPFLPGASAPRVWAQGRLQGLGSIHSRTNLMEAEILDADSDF
T3 sequence (P56726 33-793 W539L): as the sequence (P56726 33-793) above, with W507L counted along it
T6 sequence (P56726 33-793): as the sequence (P56726 33-793) above
T2 sequence (P56726 33-793 D477H): as the sequence (P56726 33-793) above, with D445H counted along it
T5 sequence (P56726 with tags, fused parts or gaps DEL68-184): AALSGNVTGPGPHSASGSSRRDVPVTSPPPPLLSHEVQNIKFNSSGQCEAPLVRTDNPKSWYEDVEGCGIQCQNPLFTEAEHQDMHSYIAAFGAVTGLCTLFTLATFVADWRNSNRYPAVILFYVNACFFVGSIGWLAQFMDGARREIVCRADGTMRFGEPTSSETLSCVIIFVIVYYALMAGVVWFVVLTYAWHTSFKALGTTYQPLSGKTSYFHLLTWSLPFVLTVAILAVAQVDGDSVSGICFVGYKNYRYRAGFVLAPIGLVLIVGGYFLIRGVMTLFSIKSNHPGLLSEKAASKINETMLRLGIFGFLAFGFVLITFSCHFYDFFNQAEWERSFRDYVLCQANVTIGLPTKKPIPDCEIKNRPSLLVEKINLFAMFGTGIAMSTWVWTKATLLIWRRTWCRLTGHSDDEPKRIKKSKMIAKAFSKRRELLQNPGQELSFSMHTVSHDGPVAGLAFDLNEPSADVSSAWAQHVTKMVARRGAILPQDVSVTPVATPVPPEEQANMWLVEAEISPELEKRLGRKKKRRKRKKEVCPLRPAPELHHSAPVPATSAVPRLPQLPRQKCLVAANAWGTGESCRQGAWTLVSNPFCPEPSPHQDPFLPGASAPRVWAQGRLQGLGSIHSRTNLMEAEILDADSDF

## CC(C)CCC[C@@](C)(O)[C@H]1CC[C@H]2[C@@H]3CC=C4C[C@@H](O)CC[C@]4(C)[C@H]3CC[C@@]21C [20(R)-OHC]
[1]; ref Nachtergaele et al., 2012
  activation of Hh signaling: cannot activate Hh signaling
mSmo CRD-Fc
  inhibition of binding of mSmo CRD-Fc to 20(S)-OHC beads: unable to inhibit binding; also recorded: failed to inhibit

## C#CCC[C@](C)(O)[C@H]1CC[C@H]2[C@@H]3CC=C4C[C@@H](O)CC[C@]4(C)[C@H]3CC[C@@]21C [20(S)-yne]
[1]; Hh-activation potency, ref Nachtergaele et al., 2012
  potency relative to 20(S)-OHC: ~10 fold
mSmo CRD-Fc
  inhibition of binding of mSmo CRD-Fc to 20(S)-OHC beads: Binding could be inhibited

## CC(C)CCCC(=O)[C@H]1CC[C@H]2[C@@H]3CC=C4C[C@@H](O)CC[C@]4(C)[C@H]3CC[C@]12C [20-keto-cholesterol]
mSmo CRD-Fc
  inhibition of binding of mSmo CRD-Fc to 20(S)-OHC beads: failed to inhibit

## C#CCCC(=O)[C@H]1CC[C@H]2[C@@H]3CC=C4C[C@@H](O)CC[C@]4(C)[C@H]3CC[C@]12C [20-keto-yne, (3β, 17β)-17-(1-oxopent-4-yn-1-yl)-androst-5-en-3-ol]
mSmo D477H
  signaling by mSmo D477H: reduced signaling
[2]
  activation of Hh signaling: weak activators of signaling
mSmo CRD-Fc
  inhibition of binding of mSmo CRD-Fc to 20(S)-OHC beads: blocked the binding
mSmoM2
  signaling by mSmoM2: reduced signaling
full-length mSmo
  competition of bodipy-cyclopamine binding: did not affect the binding

## CC(C)CC[C@H](O)[C@@H](C)[C@H]1CC[C@H]2[C@@H]3CC=C4C[C@@H](O)CC[C@]4(C)[C@H]3CC[C@]12C [22(S)-OHC]
[1]; ref Nachtergaele et al., 2012
  activation of Hh signaling: cannot activate Hh signaling
mSmo CRD-Fc
  inhibition of binding of mSmo CRD-Fc to 20(S)-OHC beads: unable to inhibit binding

## CC(C)CCN[C@@H](C)[C@H]1CC[C@H]2[C@@H]3CC=C4C[C@@H](O)CC[C@]4(C)[C@H]3CC[C@]12C [22-azacholesterol]
[1]; ref Nedelcu et al., 2013
  block of signaling induced by SAG or by mSmoM2: does not block signaling induced by SAG or by mSmoM2

## CCCC1O[C@@H]2C[C@H]3[C@@H]4CCC5=CC(=O)C=C[C@]5(C)[C@H]4[C@@H](O)C[C@]3(C)[C@]2(C(=O)CO)O1 (stereo partly shown) [Budesonide]
Smo
  competition with cyclopamine for binding to Smo: fail to compete with cyclopamine for binding to Smo

## CC(C)C(=O)OCC(=O)[C@@]12O[C@H](C3CCCCC3)O[C@@H]1C[C@H]1[C@@H]3CCC4=CC(=O)C=C[C@]4(C)[C@H]3[C@@H](O)C[C@@]12C [Ciclesonide]
Smo
  competition with cyclopamine for binding to Smo: fail to compete with cyclopamine for binding to Smo

## CCC(C)n1ncn(-c2ccc(N3CCN(c4ccc(OCC5COC(Cn6cncn6)(c6ccc(Cl)cc6Cl)O5)cc4)CC3)cc2)c1=O (stereo not shown) [Itraconazole]
mSmo CRD-Fc
  inhibition of binding of mSmo CRD-Fc to 20(S)-OHC beads: failed to inhibit the binding

## CNC1CCC(N(Cc2cccc(-c3ccncc3)c2)C(=O)c2sc3ccccc3c2Cl)CC1 (stereo not shown) [SAG]
ΔCRD-YFP-mSmo
  response of ΔCRD-YFP-mSmo to agonist (Hh target genes, Gli3R): retained its ability to respond to SAG
YFP-mSmo
  Gli3R level: loss of the repressor form of Gli3 (Gli3R) was observed
  activation of Hh target gene Gli1: could activate a Hh target gene, Gli1
mSmo CRD-Fc
  inhibition of binding of mSmo CRD-Fc to 20(S)-OHC beads: failed to inhibit the binding

## Cc1nn(-c2ccccc2)c(C)c1/C=N/N1CCN(Cc2ccccc2)CC1 [SANT-1]
[3]
  Shh-induced Smo accumulation in cilia: prevent Shh-induced Smo accumulation in cilia
mSmo CRD-Fc
  inhibition of binding of mSmo CRD-Fc to 20(S)-OHC beads: failed to inhibit the binding
full-length mSmo
  competition of bodipy-cyclopamine binding: can be competed

## CS(=O)(=O)c1ccc(C(=O)Nc2ccc(Cl)c(-c3ccccn3)c2)c(Cl)c1 [Vismodegib]
[3]
  Shh-induced Smo accumulation in cilia: prevent Shh-induced Smo accumulation in cilia

## CC(C)CCC[C@@](C)(O)[C@@H]1CC[C@@H]2[C@H]3CC=C4C[C@H](O)CC[C@@]4(C)[C@@H]3CC[C@]21C [ent-20(S)-OHC]
[1]; ref Nachtergaele et al., 2012
  activation of Hh signaling: cannot activate Hh signaling
mSmo CRD-Fc
  inhibition of binding of mSmo CRD-Fc to 20(S)-OHC beads: unable to inhibit binding

## (3β, 17β)-17-[(2R)-2-hydroxy-hex-4-yn-2-yl]-androst-5-en-3-ol [20(R)-yne]
mSmo D477H
  signaling by mSmo D477H: reduced signaling
[2]
  activation of Hh signaling: weak activators of signaling
mSmo CRD-Fc
  inhibition of binding of mSmo CRD-Fc to 20(S)-OHC beads: blocked the binding
mSmoM2
  signaling by mSmoM2: reduced signaling
full-length mSmo
  competition of bodipy-cyclopamine binding: did not affect the binding
